Values after ≈ are worked out from the molar mass of the structure shown. Where two headings read alike, the source gives them in different places. Numbered stars: 1 amine (or outer) side, 2 acyl side, 3 side chain; on linkers, the order of the positions; unused ones are H or OH. Bridge positions count the residues as written; N and C are the ends. Square brackets hold non-standard residues; d marks the D form. Peptide text beside a SMILES is read from it. * marks the point of attachment. Lys(Me,(CH2)4NMe(CH2)5CO) = CN(CCCCCC(=O)[*:3])CCCCN(C)CCCC[C@H](N[*:1])C(=O)[*:2]; Lys(Me,(CH2)4NMe(CH2)4CO) = CN(CCCCC(=O)[*:3])CCCCN(C)CCCC[C@H](N[*:1])C(=O)[*:2]; Trp(7-Me) = Cc1cccc2c(C[C@H](N)C(=O)O)c[nH]c12; Trp(1-Me) = Cn1cc(C[C@H](N)C(=O)O)c2ccccc21; 2Nal = N[C@@H](Cc1ccc2ccccc2c1)C(=O)O; 3Pal = N[C@@H](Cc1cccnc1)C(=O)O; Thp = NC1(C(=O)O)CCOCC1; Me2NCH2CH2 = CN(C)CC*; Aib = CC(C)(N)C(=O)O; Sar = CNCC(=O)O
How the values were obtained:
[1] = Solubility of peptide compounds in buffer formulations (Table 5); format: physicochemical; details: target 1 mg/ml
How it was run: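 Solubility was quantified by UHPLC-UV, comparing 1:10-diluted filtrate peak areas with a DMSO reference standard and correcting for extinction coefficients. Samples were prepared from dried DMSO stock at 1 mg/mL nominal in pH 1.2 HCl, pH 6.5 or pH 7.4 phosphate (50 mM), and agitated 2 h.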

[2] = Chemical stability (relative purity loss) of peptide compounds in buffer formulations (Table 6); format: physicochemical; details: 2° C. and 37° C.
Protocol: Purity of a peptide batch was determined through UHPLC/MS method A prior to chemical stability measurement.
For stability assessment, the target concentration was 0.5 mg pure compound/ml. Therefore, solutions from solid samples were prepared in a buffer system at a concentration of 0.5 mg/mL compound. The solid samples were obtained by drying down aliquots of a freshly prepared acetonitrile stock solution using a THERMO SPEEDVAC vacuum centrifuge. The dry down time was 3 hours.
The following buffer systems were applied: • Solubility buffer system A): 50 mM HCl pH 1.2+Acetonitrile (3:1). • Solubility buffer system B): 50 mM phosphate buffer pH 6.5+Acetonitrile (3:1). • Solubility buffer system C): 50 mM phosphate buffer pH 7.4+Acetonitrile (3:1). • Prepared solutions were stored for 24 hours at 2° C. and 37° C.
After this time course, the samples were centrifuged for 15 min at 2500 RCF to create a 1:5 dilution of the supernatant. Then 2 μl of the dilution were analyzed with UHPLC-UV applying method A.
The chemical stability was rated through the relative loss of purity calculated by the equation: […]

[3] = Protease stability in simulated intestinal fluids (FaSSIF) (Table 7); format: in vitro ADME; details: fassif with pancreatin, 37° C.; for remaining at 1 h, 1 µM: 60 min, read-out: Remaining percentage of peptide compound, FaSSIF 60 (min); for remaining at 2 h, 1 µM: 120 min, read-out: Remaining percentage of peptide compound, FaSSIF 120 (min); for remaining at 4 h, 1 µM: 240 min, read-out: Remaining percentage of peptide compound, FaSSIF 240 (min)
How it was run: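 Percent parent remaining was derived from LC-MS/MS peak areas normalised to time 0, set at 100%. Sampling at 0, 60, 120 and 240 min, quenched in ethanol with 0.1% HCOOH. Final peptide 1 μM, 37° C, SIF containing pancreatin.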

[4] = Protease stability in simulated gastric fluids (FaSSGF) (Table 7); format: in vitro ADME; details: fassgf with pepsin, 60 min, 37° C., read-out: Remaining percentage of peptide compound, FaSSGF 60 (min)
How it was run: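 Peptides at 1 μM final were incubated at 37 °C in simulated gastric fluid with pepsin (320 mg per 100 mL SGF concentrate). Samples were quenched with ethanol (0.1% HCOOH) at 0, 60, 120 and 240 min and analysed by LC-MS/MS. Percent remaining is the peak area relative to T0 (100%).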

[5] = system: IL-23 induced STAT3 signaling (IL-23 receptor) in HEK-Blue IL-23 cells; assay: Inhibition of IL-23 induced STAT3 signaling in HEK-Blue IL-23 cells, SEAP reporter (Table 9); format: cell-based; details: human IL23 0.25 ng/ml, overnight, read-out: Inhibition of IL-23 induced pSTAT3 (IC50 nM)
How it was run: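 STAT3-driven SEAP output measured at OD 620–655 nm after 45 min QUANTI-Blue development of supernatant, with dose-response fits. Peptides were given 60 min ahead of 0.25 ng/ml (final) human IL-23, followed by overnight culture at 37 °C; 10,000 HEK-Blue IL-23 cells per well.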

[6] = Buffer pH 1.1 (head; method: 50 mM HCl pH 1.2), 2 h agitation, read-out: Solubility, Buffer pH 1.1
[7] = aqueous buffer, 50 mM phosphate buffer pH 6.5, 2 h agitation, read-out: Solubility, Buffer pH 6.5
[8] = aqueous buffer, 50 mM phosphate buffer pH 7.4, 2 h agitation, read-out: Solubility, Buffer pH 7.4
[9] = 50 mM phosphate buffer pH 6.5 + acetonitrile (3:1), read-out: Chemical stability (relative purity loss), Buffer pH 6.5
[10] = 50 mM phosphate buffer pH 7.4 + acetonitrile (3:1), read-out: Chemical stability (relative purity loss), Buffer pH 7.4
[11] = 50 mm hcl + acetonitrile, Buffer pH 1.1 (head; method: 50 mM HCl pH 1.2 + acetonitrile 3:1), read-out: Chemical stability (relative purity loss), Buffer pH 1.1

Structure (SMILES) | solubility at 2 h [1, 6] [µg/mL] | solubility at 2 h [1, 7] [µg/mL] | solubility at 2 h [1, 8] [µg/mL] | degraded at 24 h [2, 9] [%] | degraded at 24 h [2, 10] [%] | degraded at 24 h [2, 11] [%] | remaining at 1 h, 1 µM [3] [%] | remaining at 2 h, 1 µM [3] [%] | remaining at 4 h, 1 µM [3] [%] | remaining at 1 h, 1 µM [4] [%] | IC50 [5] [nM]
Cc1cccc2c(C[C@@H]3NC(=O)CCCCCN(C)CCCCN(C)CCCC[C@@H](C(=O)N[C@@H](CC(N)=O)C(=O)N[C@@H](Cc4cccnc4)C(=O)N(C)CC(N)=O)NC(=O)C(C)(C)NC(=O)[C@H](Cc4ccc5ccccc5c4)NC(=O)[C@H](Cc4ccc(OCCN(C)C)cc4)NC(=O)C4(CCOCC4)NC(=O)[C@H](CCC(N)=O)NC3=O)c[nH]c12 [compound 31] ([Trp(7-Me)]Q[Thp]Y(Me2NCH2CH2)[2Nal][Aib][Lys(Me,(CH2)4NMe(CH2)5CO)]N[3Pal][Sar]-NH2; lactam N-7) | ≥ 1020 | ≥ 1220 | ≥ 1090 | 0 | 0 | 6 | 93 | 91 | 90 | 100 | 0.71
CN(C)CCOc1ccc(C[C@@H]2NC(=O)C3(CCOCC3)NC(=O)[C@H](CCC(N)=O)NC(=O)[C@H](Cc3cn(C)c4ccccc34)NC(=O)CCCCN(C)CCCCN(C)CCCC[C@@H](C(=O)N[C@@H](CO)C(=O)N[C@@H](Cc3cccnc3)C(=O)N(C)CC(N)=O)NC(=O)C(C)(C)NC(=O)[C@H](Cc3ccc4ccccc4c3)NC2=O)cc1 [compound 40] ([Trp(1-Me)]Q[Thp]Y(Me2NCH2CH2)[2Nal][Aib][Lys(Me,(CH2)4NMe(CH2)4CO)]S[3Pal][Sar]-NH2; lactam N-7) | ≥ 980 | ≥ 1070 | ≥ 1060 | 0 | 0 | 5.7 | 97 | 93 | 92 | 100 | 2.26
Cc1cccc2c(C[C@@H]3NC(=O)CCCCN(C)CCCCN(C)CCCC[C@@H](C(=O)NCC(=O)N[C@@H](Cc4cccnc4)C(=O)N(C)CC(N)=O)NC(=O)C(C)(C)NC(=O)[C@H](Cc4ccc5ccccc5c4)NC(=O)[C@H](Cc4ccc(OCCN(C)C)cc4)NC(=O)C4(CCOCC4)NC(=O)[C@H](CCC(N)=O)NC3=O)c[nH]c12 [compound 28] ([Trp(7-Me)]Q[Thp]Y(Me2NCH2CH2)[2Nal][Aib][Lys(Me,(CH2)4NMe(CH2)4CO)]G[3Pal][Sar]-NH2; lactam N-7) | ≥ 1200 | ≥ 1060 | ≥ 990 | 0 | 0 | 6.7 | 97 | 98 | 98 | 101 | 2.14
CC(=O)NCCCC[C@@H]1NC(=O)[C@H](Cc2c[nH]c3c(C)cccc23)NC(=O)CCCCN(C)CCCCN(C)CCCC[C@@H](C(=O)NCC(=O)N[C@@H](Cc2cccnc2)C(=O)N(C)CC(N)=O)NC(=O)C(C)(C)NC(=O)[C@H](Cc2ccc3ccccc3c2)NC(=O)[C@H](Cc2ccc(OCCN(C)C)cc2)NC(=O)C2(CCOCC2)NC1=O [compound 29] ([Trp(7-Me)]K(Ac)[Thp]Y(Me2NCH2CH2)[2Nal][Aib][Lys(Me,(CH2)4NMe(CH2)4CO)]G[3Pal][Sar]-NH2; lactam N-7) | ≥ 970 | 850 (≈ 526 µM) | 830 (≈ 513 µM) | 0 | 0 | 3 | 96 | 95 | 90 | 99 | 2.75

Reference: patent US20260297129A1, “PEPTIDES AS SELECTIVE IL-23 RECEPTOR INHIBITORS” (SANOFI, priority 2023, published 2026)
